Measurements from patent publication US20240272142A1, “METHOD FOR DETERMINING WHITENING EFFICACY OF COSMETIC RAW MATERIAL AND USE THEREOF” (SHENZHEN INSTITUTE FOR DRUG CONTROL (SHENZHEN TESTING …, priority 2023, published 2024).
Several values for one entry are separate records, joined by “and”; a condition that tells them apart may be missing. Identical values can stand only once.

System: mouse melanoma cells B16-F10
Experiment: Relative melanin content of B16-F10 cells after 24 h stimulation with α-MSH (Example 1)
Type: cell-based
Settings: absorbance at 405 nm relative to blank group, three replicate values
Description: The results in the examples of the present disclosure are all expressed in terms of a relative melanin content: the relative melanin content=absorbance of the experimental group/absorbance of the blank group×100%.
• (1) A cell suspension of B16-F10 cells in a logarithmic growth phase was inoculated into 6-well plates in a cell density of 2×10^5 cells/mL, with an amount being 2 mL in each well, and then added into a 5% carbon dioxide incubator and cultured at a temperature of 37° C. for 24 h. • (2) A medium contained in the 6-well plates was removed, the B16-F10 cells were washed with 2 mL of the PBS, 2 mL of substances from each of the following groups each were added into each well of the 6-well plates, and then cultured in the 5% carbon dioxide incubator at a temperature of 37° C. for 24 h.
Blank group: 2 mL of a basal DMEM was added into each well.
Model group: 2 mL of a-MSH solutions with different concentrations (0.5 μM, 1 μM, 2.5 μM, 5 μM, and 10 μM) were separately added into each well. • (3) Determination of a relative melanin content: the basal DMEM in the 6-well plates was removed by using a sterile pipette, the B16-F10 cells were washed with 2 mL of the PBS, and digested with 400 μL of trypsin; then the digesting was terminated with 1 mL of a complete DMEM; the B16-F10 cells were collected into centrifuge tubes, and centrifuged at 2,500 rpm for 10 min; a resulting supernatant after centrifugation was discarded, the resulting B16-F10 cells were centrifuged with 1,000 μL of the PBS for a second time, 500 μL of a 1 mol/L NaOH solution (containing 10% of DMSO) was added into each of the centrifuge tubes, and subjected to water bath at a temperature of 80° C. for 1 h to obtain a product; 200 μL of the product was transferred into a 96-well plate, an absorbance at 405 nm was determined and calculated to obtain the relative melanin content.

**Q.** Which results are given for “α-melanocyte-stimulating hormone [α-MSH]”?
**A.** Relative melanin content (α-MSH 0.5 μM): 102.51% and 111.76% and 97.21%; Relative melanin content (α-MSH 1.0 μM): 104.65% and 100.54% and 103.16%; Relative melanin content (α-MSH 2.5 μM): 98.75% and 98.22% and 102.18%; Relative melanin content (α-MSH 5.0 μM): 96.79% and 97.45% and 95.71%; Relative melanin content (α-MSH 10 μM): 111.71% and 108.05% and 112.79%
